Data as given in patent US20220313701A1, “MODULATORS OF TREX1” (Constellation Pharmaceuticals, Inc., priority 2019, published 2022).

How the values were obtained:
full length human TREX1 = molecular target: T1, full length human TREX1 (Homo sapiens, UniProt Q9NSU2); test: TREX1 Biochemical Assay (fluorescence assay, degradation of dsDNA substrate); details: 150 pM TREX1, 60 nM dsDNA substrate, 25 minutes at room temperature
T1 construct: N-terminally His-Tev tagged full length human TREX1; His-Tev (His tag with TEV site) (N); made in house; host or cells: E. coli
T1 sequence (Q9NSU2 1-314): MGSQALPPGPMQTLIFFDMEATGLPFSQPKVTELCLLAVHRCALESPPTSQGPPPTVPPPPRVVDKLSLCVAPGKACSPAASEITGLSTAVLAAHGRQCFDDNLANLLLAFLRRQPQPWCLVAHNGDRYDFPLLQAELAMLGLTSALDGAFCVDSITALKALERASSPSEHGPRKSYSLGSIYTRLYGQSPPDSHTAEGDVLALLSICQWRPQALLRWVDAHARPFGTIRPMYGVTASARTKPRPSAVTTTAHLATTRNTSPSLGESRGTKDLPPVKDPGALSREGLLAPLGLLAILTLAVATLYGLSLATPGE
Protocol: Degradation of the dsDNA liberates free fluorophore to produce a fluorescent signal. Specifically, 7.5 μL of N-terminally His-Tev tagged full length human TREX1 (expressed in E. coli and purified in house) in reaction buffer (50 mM Tris (pH 7.4), 150 mM NaCl, 2 mM DTT, 0.1 mg/mL BSA, 0.01% (v/v) Tween-20 and either 100 mM MgCl2) was added to a 384-well Black ProxiPlate Plus (Perkin Elmer) which already contained compound (150 nL) at varying concentrations as a 10 point dose-response in DMSO. To this was added 7.5 μL of dsDNA substrate (Strand A: 5′ TEX615/GCT AGG CAG 3′; Strand B: 5′ CTG CCT AGC/IAbRQSp (Integrated DNA Technologies)) in reaction buffer. Final concentrations were 150 pM TREX1, 60 nM dsDNA substrate in reaction buffer with 1.0% DMSO (v/v). After 25 minutes at room temperature, reactions were quenched by the addition of 5 μL of stop buffer (same as reaction buffer plus 200 mM EDTA). Final concentrations in the quenched reaction were 112.5 pM TREX1, 45 nM DNA and 50 mM EDTA in a volume of 20 μL. After a 5-minute incubation at room temperature, plates were read in a laser sourced Envision (Perkin-Elmer), measuring fluorescence at 615 nm following excitation w/570 nm light. IC50 values were calculated by comparing the measured fluorescence at 615 nm ratio relative to control wells pre-quenched w/stop buffer (100% inhibition) and no inhibitor (0% inhibition) controls as using non-linear least square four parameter fits and either Genedata or GraphPad Prism (GraphPad Software, Inc.).

[1] = molecular target: T2, human TREX2 (residues M44-A279) (Homo sapiens, UniProt Q9BQ50); test: TREX2 Biochemical Assay (fluorescence assay, degradation of dsDNA substrate); details: 2.5 nM TREX2, 60 nM dsDNA substrate, 25 minutes at room temperature
T2 construct: human TREX2 (residues M44-A279, expressed in E. coli); His-Tev (His tag with TEV site) (N); made in house; host or cells: E. coli
T2 sequence (Q9BQ50 44-279 isoform Q9BQ50-1): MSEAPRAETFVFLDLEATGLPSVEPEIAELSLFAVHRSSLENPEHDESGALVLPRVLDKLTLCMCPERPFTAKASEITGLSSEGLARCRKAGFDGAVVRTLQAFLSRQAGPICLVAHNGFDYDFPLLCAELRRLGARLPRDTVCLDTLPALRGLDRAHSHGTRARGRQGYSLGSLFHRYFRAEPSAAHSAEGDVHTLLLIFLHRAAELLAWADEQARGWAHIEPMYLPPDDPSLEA
Protocol: Degradation of the dsDNA liberates free fluorophore to produce a fluorescent signal. Specifically, 7.5 μL of N-terminally His-Tev tagged human TREX2 (residues M44-A279, expressed in E. coli and purified in house) in reaction buffer (50 mM Tris (pH 7.4), 150 mM NaCl, 2 mM DTT, 0.1 mg/mL BSA, 0.01% (v/v) Tween-20 and 100 mM MgCl2) was added to a 384-well Black ProxiPlate Plus (Perkin Elmer) which already contained compound (150 nL) at varying concentrations as a 10 point dose-response in DMSO. To this was added 7.5 μL of dsDNA substrate (Strand A: 5′ TEX615/GCT AGG CAG 3′; Strand B: 5′ CTG CCT AGC/IAbRQSp (IDT)) in reaction buffer. Final concentrations were 2.5 nM TREX2, 60 nM dsDNA substrate in reaction buffer with 1.0% DMSO (v/v). After 25 minutes at room temperature, reactions were quenched by the addition of 5 μL of stop buffer (same as reaction buffer plus 200 mM EDTA). Final concentrations in the quenched reaction mixture were […] TREX2, 45 nM DNA and 50 mM EDTA in a volume of 20 μL. After a 5-minute incubation at room temperature, plates were read in a laser sourced Envision (Perkin-Elmer), measuring fluorescence at 615 nm following excitation w/570 nm light. IC50 values were calculated by comparing the measured fluorescence at 615 nm ratio relative to control wells pre-quenched w/stop buffer (100% inhibition) and no inhibitor (0% inhibition) controls as using non-linear least square four parameter fits and either Genedata or GraphPad Prism (GraphPad Software, Inc.).

| Compound | IC50 (full length human TREX1) [µM] | IC50 [1] [µM] |
| --- | --- | --- |
| N#Cc1cccc(-c2cncc(N3CCC(O)(c4ccc(F)cc4)CC3)n2)c1 [Example 24, 3-(6-(4-(4-fluorophenyl)-4-hydroxypiperidin-1-yl)pyrazin-2-yl)benzonitrile] | > 10 | > 100 |
| OC1(c2ccc(F)cc2)CCN(c2cncc(-c3ccc(F)cc3)n2)CC1 [Example 27, 4-(4-fluorophenyl)-1-(6-(4-fluorophenyl)pyrazin-2-yl)piperidin-4-ol] | > 10 | > 100 |
| COc1ccccc1-c1cncc(N2CCC(O)(c3ccc(F)cc3)CC2)n1 [Example 28, 4-(4-fluorophenyl)-1-(6-(2-methoxyphenyl)pyrazin-2-yl)piperidin-4-ol] | > 10 | > 100 |
| COc1ccc(-c2cncc(N3CCC(O)(c4ccc(F)cc4)CC3)n2)cc1 [Example 29, 4-(4-fluorophenyl)-1-(6-(4-methoxyphenyl)pyrazin-2-yl)piperidin-4-ol] | > 10 | > 100 |
| OC1(c2ccc(F)cc2)CCN(c2cncc(-c3ccccc3C(F)(F)F)n2)CC1 [Example 31, 4-(4-fluorophenyl)-1-(6-(2-(trifluoromethyl)phenyl)pyrazin-2-yl)piperidin-4-ol] | 1 to 10 | > 100 |
| OC1(c2ccc(F)cc2)CCN(c2cncc(-c3cccc(C(F)(F)F)c3)n2)CC1 [Example 32, 4-(4-fluorophenyl)-1-(6-(3-(trifluoromethyl)phenyl)pyrazin-2-yl)piperidin-4-ol] | > 10 | > 100 |
| OC1(c2ccc(F)cc2)CCN(c2cncc(-c3ccc(C(F)(F)F)cc3)n2)CC1 [Example 33, 4-(4-fluorophenyl)-1-(6-(4-(trifluoromethyl)phenyl)pyrazin-2-yl)piperidin-4-ol] | > 10 | > 100 |
| Cc1ccc(-c2cncc(N3CCC(O)(c4ccc(F)cc4)CC3)n2)cc1 [Example 34, 4-(4-fluorophenyl)-1-(6-(p-tolyl)pyrazin-2-yl)piperidin-4-ol] | 1 to 10 | > 100 |
| OC1(c2ccc(F)cc2)CCN(c2cncc(-c3ccncc3)n2)CC1 [Example 35, 4-(4-fluorophenyl)-1-(6-(pyridin-4-yl)pyrazin-2-yl)piperidin-4-ol] | 1 to 10 | > 100 |
| Cn1cc(-c2ccnc(N3CCC(O)(c4ccc(F)cc4)CC3)n2)cn1 [Example 37, 4-(4-fluorophenyl)-1-(4-(1-methyl-1H-pyrazol-4-yl)pyrimidin-2-yl)piperidin-4-ol] | 1 to 10 | > 100 |
| COC(=O)c1cc(-c2cnn(C)c2)nc(N2CCC(O)(c3ccc(F)cc3)CC2)c1 [Example 38, methyl 2-(4-(4-fluorophenyl)-4-hydroxypiperidin-1-yl)-6-(1-methyl-1H-pyrazol-4-yl)isonicotinate] | 1 to 10 | > 100 |
| Cc1nn(C)cc1-c1cccc(N2CCC(O)(c3ccc(F)c(F)c3)CC2)n1 [Example 42, 4-(3,4-difluorophenyl)-1-(6-(1,3-dimethyl-1H-pyrazol-4-yl)pyridin-2-yl)piperidin-4-ol] | 1 to 10 | > 100 |

Other lines, results leading:

| IC50 (full length human TREX1) [µM] | IC50 [1] [µM] | Compound |
| --- | --- | --- |
| 1 to 10 | > 100 | OC1(c2ccc(F)cc2)CCN(c2cncc(-c3ccccc3F)n2)CC1 [Example 25, 4-(4-fluorophenyl)-1-(6-(2-fluorophenyl)pyrazin-2-yl)piperidin-4-ol] |
| 1 to 10 | > 100 | OC1(c2ccc(F)cc2)CCN(c2cncc(-c3cccc(F)c3)n2)CC1 [Example 26, 4-(4-fluorophenyl)-1-(6-(3-fluorophenyl)pyrazin-2-yl)piperidin-4-ol] |
| 1 to 10 | > 100 | N#Cc1ccc(-c2cncc(N3CCC(O)(c4ccc(F)cc4)CC3)n2)cc1 [Example 30, 4-(6-(4-(4-fluorophenyl)-4-hydroxypiperidin-1-yl)pyrazin-2-yl)benzonitrile] |
| 0.1 to 1 | > 100 | Cn1cc(-c2nccc(N3CCC(O)(c4ccc(F)cc4)CC3)n2)cn1 [Example 36, 4-(4-fluorophenyl)-1-(2-(1-methyl-1H-pyrazol-4-yl)pyrimidin-4-yl)piperidin-4-ol] |
| < 0.1 | 10 to 100 | Cc1nn(C)cc1-c1cc(C(N)=O)cc(N2CCC(O)(c3ccc(F)c(F)c3)CC2)n1 [Example 39, 2-(4-(3,4-difluorophenyl)-4-hydroxypiperidin-1-yl)-6-(1,3-dimethyl-1H-pyrazol-4-yl)isonicotinamide] |
| 0.1 to 1 | > 100 | Cc1nn(C)cc1-c1cc(C(=O)NCc2ccccc2)cc(N2CCC(O)(c3ccc(F)c(F)c3)CC2)n1 [Example 40, N-benzyl-2-(4-(3,4-difluorophenyl)-4-hydroxypiperidin-1-yl)-6-(1,3-dimethyl-1H-pyrazol-4-yl)isonicotinamide] |
| < 0.1 | 10 to 100 | Cc1nn(C)cc1-c1cc(C(=O)N2CCCCC2)cc(N2CCC(O)(c3ccc(F)c(F)c3)CC2)n1 [Example 41, (2-(4-(3,4-difluorophenyl)-4-hydroxypiperidin-1-yl)-6-(1,3-dimethyl-1H-pyrazol-4-yl)pyridin-4-yl)(piperidin-1-yl)methanone] |
| 0.1 to 1 | > 100 | Cc1cc(-c2cn(C)nc2C)nc(N2CCC(O)(c3ccc(F)c(F)c3)CC2)c1 [Example 43] |
| 0.1 to 1 | 10 to 100 | Cc1nn(C)cc1-c1cc(CO)cc(N2CCC(O)(c3ccc(F)c(F)c3)CC2)n1 [Example 44, 4-(3,4-difluorophenyl)-1-(6-(1,3-dimethyl-1H-pyrazol-4-yl)-4-(hydroxymethyl)pyridin-2-yl)piperidin-4-ol] |
| < 0.1 | 10 to 100 | Cc1nn(C)cc1-c1cc(C(C)(C)O)cc(N2CCC(O)(c3ccc(F)c(F)c3)CC2)n1 [Example 45, 4-(3,4-difluorophenyl)-1-(6-(1,3-dimethyl-1H-pyrazol-4-yl)-4-(2-hydroxypropan-2-yl)pyridin-2-yl)piperidin-4-ol] |
| 0.1 to 1 | > 100 | Cc1nn(C)cc1-c1cc(C(F)(F)F)cc(N2CCC(O)(c3ccc(F)c(F)c3)CC2)n1 [Example 46, 4-(3,4-difluorophenyl)-1-(6-(1,3-dimethyl-1H-pyrazol-4-yl)-4-(trifluoromethyl)pyridin-2-yl)piperidin-4-ol] |
| < 0.1 | 10 to 100 | Cc1nn(C)cc1-c1cncc(N2CCC(O)(c3cc(F)c(F)c(F)c3)CC2)n1 [Example 47, 1-(6-(1,3-dimethyl-1H-pyrazol-4-yl)pyrazin-2-yl)-4-(3,4,5-trifluorophenyl)piperidin-4-ol] |
